From patent US10039806B2, “Methods and compositions for treating antiprogestin-resistant cancers” (Fundación Sales, priority 2011, dated 2018)

How the values were obtained:
C4-2-HI and 59-HI cells = experiment: (3H)-thymidine incorporation with 5azadC and RU-486 in 10% FCS; type: cell-based, mouse; conditions: 5 μM 5azadC, 100 nM RU-486; P<0.001
Protocol: (3H)-thymidine-uptake was used as an indirect method to evaluate cell proliferation. In brief, cells were seeded into 96-well microplates. After attachment (24 h), the cells were incubated for 24 h with 1% steroid-stripped FCS and then for 48 h with the experimental solutions to be tested in 1% chFCS. Fifty percent of the medium was replaced with fresh medium every 24 h. […] In experiments in which 5azadC was used, the experiments were carried out using proliferating cells (presence of 10% FCS) to guarantee the effect of the demethylating agent. Three different experiments were made using octuplicates, and the means and standard deviations of one representative experiment of the other three are shown.

IBH-6-pSG5 tumors = experiment: Xenograft in nude mice; type: in vivo, human; conditions: MFP 10 mg/kg/day; p<0.001
Description: BH-6 cell line was developed from an invasive ductal breast carcinoma (1). IBH-6 cells express basal levels of hormone receptors, they are tumorigenic and in vivo express higher levels of PRB than PRA (2). Cells were transfected with human PRB, PRA (pSG5-PRB, pSG5-PRA, kindly provided by K. Horwitz) or with the empty vector (pSG5), together with a plasmid encoding the neomycin resistance gene pIRES-N1(3), using Lipofectamine transfection reagent (Invitrogen) following the manufacturer's instructions. Transfected and selected cells were cultured in medium supplemented with […] G418 (neomycin analogue, GIBCO). The expression of PRB and PRA were analyzed by western blot and immunofluorescence (using Ab7 and Ab6 antibodies from Thermo Fisher). T47D-YA or YB were kindly provided by K. Horwitz and cultured as previously described (4).
Transfected and selected cells were grown up to confluence, washed with PBS, detached with 0.25% trypsin, centrifuged at 1000 rpm for 10 min and resuspended in a final concentration of 10^6 (IBH-6) or 5×10^6 (T47D) cells per 100 μl of culture medium. The cells were sc inoculated into the right flank of nu/nu (IBH-6) or NOD/LtSz-scid/IL-2Rgamma null (T47D-YA or -YB cells) female mice. […]

[1] = test system: primary cultures of responsive tumors; experiment: Primary cultures of responsive tumors of the MPA model; type: cell-based, mouse
HI-responsive tumors = conditions: daily doses of 10 mg/kg; cited from earlier work
[2] = test system: primary cultures of responsive tumors; conditions: cited from earlier work
[3] = test system: DMBA-induced mammary tumors; conditions: cited from earlier work
[4] = test system: MXT mouse model of breast cancer; conditions: 1 or 10 mg/kg/day from one day post-transplantation; cited from earlier work
[5] = test system: mammary hyperplasias and carcinomas; conditions: pellets of 35 mg; cited from earlier work
MCF-7 cells = conditions: cited from earlier work
T47D-YB cells = conditions: 100 nM; cited from earlier work
MCF-7 xenografts = conditions: MIF 50 mg/kg/day, ONA 30 mg/kg/day, 17 days; cited from earlier work
[6] = test system: BT-474 and T47D xenografts; conditions: 25 mg; mice treated with E2 followed by MPA; cited from earlier work
breast cancer = conditions: cited from earlier work
mammary glands = conditions: 50 mg/every other day, three months; cited from earlier work
[7] = 28 postmenopausal PR+ patients, 200 mg/day

CC#C[C@]1(O)CC[C@H]2[C@@H]3CCC4=CC(=O)CCC4=C3[C@@H](c3ccc(N(C)C)cc3)C[C@@]21C [RU-486, mifepristone]
cell proliferation, (3H)-thymidine incorporation (C4-2-HI and 59-HI cells): did not alter cell proliferation | in vivo growth (IBH-6-pSG5 tumors): stimulated | ERK phosphorylation [1]: increased ERK phosphorylation | tumor regression (HI-responsive tumors): regress | MPA-induced or FGF2-induced cell proliferation ([2]; 1-100 nM): inhibited MPA-induced or FGF2-induced cell proliferation | cell proliferation at very low concentrations ([2]; 10-12 M): stimulate cell proliferation | tumor development ([3]; 10 mg/kg/day for 3 weeks): delayed tumor development | tumor growth ([3]; 10 mg/kg/day for 3 weeks): inhibited tumor growth | PR (and ER) expression ([3]; rat, in vivo): induced down regulation of the PR | tumor take and stimulatory effects of E2 and MPA [4]: inhibited both tumor take and the stimulatory effects of E2 and MPA | induction of hyperplasia or carcinoma [5]: prevented the induction of either hyperplasia or carcinoma | E2-induced cell proliferation (MCF-7 cells; 10 nM, 10% steroid-deficient human serum): inhibited E2-induced cell proliferation | PR-mediated cell proliferation (MCF-7 cells): inhibited PR-mediated cell proliferation | progesterone-induced cell proliferation (MCF-7 cells; nanomolar concentrations): inhibit progesterone-induced cell proliferation | cell proliferation (T47D-YB cells): increased cell proliferation | E2-induced proliferation of xenografts (MCF-7 xenografts): inhibited | growth of xenografts [6]: prevent the growth | response rate (breast cancer; 22 patients, TAM-resistant metastases, 200 mg/day, following 3 months of therapy): 18% | side effects: lethargy (breast cancer; 28 postmenopausal PR+ patients, 200 mg/day, more than 8 weeks): 68% | partial response (breast cancer; [7]): 3 patients | side effects: anorexia (breast cancer; [7]): 39% | side effects: hot flashes (breast cancer; [7]): 50% | side effects: skin rash (breast cancer; [7]): 32% | side effects: vomiting (breast cancer; [7]): 29% | clinical response (breast cancer; eleven patients with metastases, 200-400 mg daily p.o.): objective response in one patient, six patients showed temporal stabilization, and four patients had progressive disease | cell proliferation in mammary gland aspirates (mammary glands): Inhibition of cell proliferation
